From patent publication US20220267288A1, “CARDIAC THERAPEUTIC” (priority 2019, published 2022)

Columns and labels:
[1] = Cytotoxicity (dead-cell protease, Mitochondrial ToxGlo) in differentiated H9c2 cells; type: cell-based; conditions: rat, differentiated H9c2 cells, 6 h exposure, read-out: cytotoxicity EC50 (bis-AAF-R110 dead-cell protease fluorescence)
Experimental: (§1) H9c2 cell line was purchased from American Tissue Type Collection (ATCC) (Manassas, Va.). The cells were cultured in low-glucose DMEM growth media (Cat No: 31600, Thermo Fisher Scientific, Waltham, Mass.) supplemented with 1.5 g/L sodium bicarbonate, 25 mM HEPES, 10% fetal bovine serum (FBS) (GE Healthcare, Singapore), 100 units/mL penicillin, 100 μg/mL streptomycin and 250 ng/mL amphotericin B in 75-cm^2 tissue-culture flasks at 37° C. in a humidified atmosphere of 5% CO2. Cells were fed every 2-3 days and sub-cultured once 70-80% confluency was achieved to prevent the loss of differentiation potential. For differentiation, H9c2 cells were seeded at a density of 100,000 cells/well in 12-well plates. The cells were maintained for 1 day in low-glucose high-serum growth media to allow for cell attachment. Subsequently, cells were differentiated using 1 μM ATRA.
(§2) H9c2 cells were seeded in a white chimney plate and differentiated. The media was changed to DMEM with 10 mM galactose, 2 mM glutamine (6 mM final), 5 mM HEPES, 1 mM sodium pyruvate, 100 U/mL penicillin, 100 μg/mL streptomycin, 0.25 μg/mL amphotericin B, 1% FBS, 1× insulin-transferrin-selenium and 1 μM ATRA for 48 h to overcome the Crabtree effect. […] The cytotoxicity and intracellular ATP content were measured concurrently using Mitochondrial ToxGlo™ kit (Promega, Madison, Wis.) using manufacturer's protocol. Mitochondrial ToxGlo™ assay measures the cell viability using fluorogenic peptide bis-alanine-alanine-phenylalanine-R110 (bis-AAF-R110). Bis-AAF-R110 is a selective peptide that measures protease activity in dead cells since it is impermeable to live cells. Here, the fluorescence derived from metabolized bis-AAF-R110 was measured at different concentrations of the test compounds and compared to control. As the concentration of cytotoxic compound increases, the number of dead cells increases, leading to a higher fluorescence signal. ATP is measured by adding the ATP Detection Reagent, resulting in cell lysis and generation of a luminescent signal proportional to the amount of ATP present. […]

H9c2 cells = assay: as above; type: cell-based
Experimental: as §1, §2

CYP3A5 = target: T1, CYP3A5 (Homo sapiens, UniProt P20815); conditions: literature value, similar experimental set-up; cited from earlier work
T1 construct: purchased BD Gentest (Woburn, Mass.)

[2] = system: chronic atrioventricular block dog; assay: Paroxysmal atrial fibrillation model in chronic atrioventricular block dogs; type: in vivo
Experimental: Experiments were performed using female beagle dogs weighing approximately 10 kg (n=4). Animals were obtained through Kitayama Labes Co., Ltd. (Nagano, Japan). All experiments were approved by the Toho University Animal Care and User Committee (No. 19-52-395) and performed according to the Guideline for the Care and Use of Laboratory Animals of Toho University.
The catheter ablation technique of atrioventricular node was employed as previously described^11,14. The dogs were anesthetized with pentobarbital sodium (30 mg/kg, i.v.). After intubation with a cuffed endotracheal tube, the respiration was controlled with room air using a volume-limited ventilator (SN-480-3; Shinano Manufacturing Co., Ltd., Tokyo, Japan). Tidal volume and respiratory rate were set at 20 mL/kg and 15 breaths/min, respectively. Heparin calcium (100 IU/kg, i.v.) was administered to prevent blood clotting. The surface lead II electrocardiogram was continuously monitored. A quad-polar electrodes catheter with a large tip of 4 mm (D7-DL-252; Cordis-Webster Inc., CA, USA) was inserted through the catheter sheath (FAST-CATH™ 406119; St. Jude Medical Daig Division, Inc., Minnetonka, Minn., USA) placed at the right femoral vein and positioned across the tricuspid valve under the guide of bipolar electrogram from the distal electrode pair. The optimal site for the atrioventricular node ablation; namely, the compact atrioventricular node, was determined on the basis of the intra-cardiac electrogram, of which a very small His deflection was recorded and atrial/ventricular voltage ratio was >2. The power source for the atrioventricular nodal ablation was obtained from an electrosurgical generator (MS-1500; Senko Medical Instrument Manufacturing Co., Ltd., Tokyo, Japan), which delivers continuous unmodulated radiofrequency energy at a frequency of 500 kHz. After determining the proper location, the radiofrequency energy of 20 W was delivered for 10 s from the tip electrode to an indifferent patch electrode positioned on the animal's back, which was continued then for 30 s if junctional ectopic complexes were induced. The endpoint of this procedure was the development of the complete atrioventricular block with an onset of stable idioventricular escaped rhythm. All surgical procedures described above were performed under the sterile condition.
The paroxysmal atrial fibrillation model was prepared as previously reported^12,13. More than 3 months after the induction of atrioventricular block, the dogs (n=4) were anesthetized with pentobarbital sodium (30 mg/kg, i.v.). After intubation with a cuffed endotracheal tube, the dogs were artificially ventilated with 0.5-1.5% isoflurane in oxygen using a volume-limited ventilator (SN-480-3; Shinano Manufacturing Co., Ltd.). Tidal volume and respiratory rate were set at 20 mL/kg and 15 breaths/min, respectively. The surface lead II electrocardiogram was obtained from the limb electrodes. […] An indwelling needle (Surflo® 18G; Terumo Corporation, Tokyo, Japan) was placed at the right femoral artery, through which the arterial blood pressure was measured.
Three sets of standard 6-French quad-polar electrodes catheter (Cordis-Webster Inc.) were used. First one was positioned at the high right atrium through the right femoral vein to electrically pace the sinus nodal area and to simultaneously obtain the right atrial electrogram. Second one was positioned in the esophagus via os to record to the left atrial electrogram. Third one was positioned at the inter-atrial septum of the right atrium through the left femoral vein to electrically induce paroxysmal atrial fibrillation as described below. The optimal sites of each catheter were determined by the temporal relationship between the bipolar atrial electrograms from the distal electrodes pair and P wave of the electrocardiogram. […]

[3] = high dose 3 mg/kg i.v., for 10-60 min

T1 sequence (P20815 whole entry): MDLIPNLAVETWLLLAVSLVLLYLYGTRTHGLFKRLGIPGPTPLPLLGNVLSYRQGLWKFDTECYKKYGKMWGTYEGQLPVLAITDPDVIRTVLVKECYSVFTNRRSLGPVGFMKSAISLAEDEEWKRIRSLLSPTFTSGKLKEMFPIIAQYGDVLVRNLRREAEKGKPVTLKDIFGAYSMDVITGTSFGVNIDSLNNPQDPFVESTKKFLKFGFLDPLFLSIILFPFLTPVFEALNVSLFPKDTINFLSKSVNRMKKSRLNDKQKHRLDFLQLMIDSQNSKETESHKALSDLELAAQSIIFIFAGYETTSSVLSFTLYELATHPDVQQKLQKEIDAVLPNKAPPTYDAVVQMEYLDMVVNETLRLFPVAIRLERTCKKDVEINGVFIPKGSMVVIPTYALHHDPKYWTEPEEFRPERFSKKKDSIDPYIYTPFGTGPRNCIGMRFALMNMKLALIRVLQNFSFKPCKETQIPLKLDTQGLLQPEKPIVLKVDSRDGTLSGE

In the case of `CCCCc1oc2ccc(NS(C)(=O)=O)cc2c1C(=O)c1ccc(OCCCN(CCCC)CCCC)cc1.Cl` [Dronedarone], the EC50 at 6 h [1] is reported as 1.21 µM, the EC50 (H9c2 cells; 6 h exposure, read-out: cytotoxicity EC50 (bis-AAF-R110 dead-cell protease fluorescence)) is reported as 1.2 µM and the “increase in the protease activity (cell death)” value (H9c2 cells; no pre-treatment with EETs) is reported as 150-200%. The “CLint CYP3A5 reported by Hong et al” value (CYP3A5) was 2.604 µL/min/pmol.
For `Cl.[2H]c1c(NS(C)(=O)=O)c([2H])c2c(C(=O)c3ccc(OCCCN(CCCC)CCCC)cc3)c(CCCC)oc2c1[2H]` [Poyendarone, Methanesulfonamide, N-(2-butyl-3-(4-(3-(dibutylamino)propoxy)benzoyl)-1-benzo(4,6,7-d3)-furan-5-yl)hydrochloride], the “lethal ventricular arrhythmias or hemodynamic collapse” value ([2]; 0.3 and 3 mg/kg i.v., experimental period) was “No animals exerted any lethal ventricular arrhythmias or hemodynamic collapse leading to their death”, the “duration of atrial fibrillation after burst pacing (typical tracing)” value ([2]; 20 min after 3 mg/kg, pre-drug control 6.9 s) was 1.8 s and the “effect on AERP(CL200)” value ([2]; high dose 3 mg/kg i.v.) was “no significant change”. The “effect on VERP(CL400)” value ([2]; high dose 3 mg/kg i.v.) was “no significant change”, the “effect on cycle length of atrial fibrillation” value ([2]; high dose 3 mg/kg i.v.) was “tended to be prolonged, which did not achieve statistical significance” and the “effect on mean blood pressure” value ([2]; high dose 3 mg/kg i.v.) was “hardly altered”. The “effect on sinoatrial rate” value ([2]; high dose 3 mg/kg i.v.) was “hardly altered”, the “effect on IACT(CL300)” value ([2]; high dose 3 mg/kg i.v., at 10 min) was “prolonged” and the “effect on IACT(CL400)” value ([2]; high dose 3 mg/kg i.v., at 10 min and for 30-60 min) was “prolonged”. The “effect on AERP(CL300)” value [2, 3] was “prolonged”, the “effect on AERP(CL400)” value [2, 3] was “prolonged” and the “effect on IACT(CL200)” value [2, 3] was “prolonged”. The “effect on duration of atrial fibrillation” value [2, 3] was “shortened”, the “effect on AERP(CL200)” value ([2]; low dose 0.3 mg/kg i.v.) was “no significant change” and the “effect on AERP(CL300)” value ([2]; low dose 0.3 mg/kg i.v.) was “no significant change”. The “effect on IACT(CL200)” value ([2]; low dose 0.3 mg/kg i.v.) was “did not alter”, the “effect on IACT(CL300)” value ([2]; low dose 0.3 mg/kg i.v.) was “did not alter” and the “effect on IACT(CL400)” value ([2]; low dose 0.3 mg/kg i.v.) was “did not alter”. For the same molecule, the “effect on VERP(CL400)” value ([2]; low dose 0.3 mg/kg i.v.) was “no significant change”, the “effect on cycle length of atrial fibrillation” value ([2]; low dose 0.3 mg/kg i.v.) was “did not alter” and the “effect on duration of atrial fibrillation” value ([2]; low dose 0.3 mg/kg i.v.) was “did not alter”. The “effect on mean blood pressure” value ([2]; low dose 0.3 mg/kg i.v.) was “hardly altered”, the “effect on sinoatrial rate” value ([2]; low dose 0.3 mg/kg i.v.) was “hardly altered” and the “effect on AERP(CL400)” value ([2]; low dose 0.3 mg/kg i.v., at 20 min) was “prolonged”.
